According to patent publication US20220378706A1, “PHARMACEUTICAL COMPOSITION COMPRISING PDE9 INHIBITOR” (Eisai R&D Management Co., Ltd., priority 2017, published 2022):
Where two headings read alike, the source gives them in different places.

Experiments:
[1] = Multiple ascending dose study: plasma pharmacokinetics; assay type: in vivo; conditions: human, po; for Tmax: read-out: tmax Median
Protocol: Four sequential cohorts of healthy participants (≥50 years and ≤85 years old) were treated with multiple ascending doses of Compound A up to the maximum tolerated dose (MTD). A total of 6 participants per cohort were randomized to Compound A. Proposed doses of Compound A were:
Participants received Compound A capsules, orally once daily (QD) on Days 1 to 14 after an overnight fast of at least 10 hours. Compound A was administered orally with 240 milliliter (mL) (8 fluid ounces) of water.
1) Maximum drug concentration (Cmax) [Time Frame: Day 1 and Day 14]
Blood samples were collected on Day 1 at predose and postdose 0.5 (30 minutes), 1, 1.5, 2, 3, 4, 5, 6, 8, 12, and 18 hours; Day 14 (at predose and postdose 0.5, 1, 1.5, 2, 3, 4, 5, 6, 8, 12, and 18 hours); and Day 15 (24 hours postdose from Day 14).
2) Mean time to reach maximum (peak) drug concentration (tmax) [Time Frame: Day 1 and Day 14]
4) Mean area under the concentration-time curve from zero time extrapolated to infinity (AUC(0-inf)) [Time Frame: Day 14]

[2] = High precision QTcF analysis using Holter ECG recording; assay type: in vivo, human; conditions: at the Cmax at the highest doses of 800 to 1200 mg, healthy subjects
Protocol: In addition, high precision QTcF analysis using Holter ECG recording was conducted in Parts A, C, and D during Day −1 and Day 1, to allow more rigorous assessments of possible changes in QTcF intervals. A central ECG laboratory was used to extract ECG recordings from the Holter device.

SMILES: COc1ncc(C)c(-c2ccc3c(c2)[nH]c(=O)c2cnn([C@H]4CCOC4)c23)c1C [Compound A, (S)-7-(2-methoxy-3,5-dimethylpyridin-4-yl)-1-(tetrahydrofuran-3-yl)-1H-pyrazolo[4,3-c]quin olin-4(5H)-one]
- Cmax ([1]; 50 mg, Part C, 50 mg oral, read-out: Cmax Mean (SD)): 608 ng/mL
- Cmax ([1]; 50 mg, Part C, 50 mg oral, read-out: Cmax Median): 590 ng/mL
- Tmax ([1]; 50 mg, Part C, 50 mg oral): 1.98 h
- AUC(0-t) ([1]; 100 mg, Day 1, 100 mg QD oral, read-out: AUC(0-24 h) GM (% CV)): 5230 ng·h/mL
- AUC(0-t) ([1]; 100 mg, Day 1, 100 mg QD oral, read-out: AUC(0-24 h) Mean (SD)): 5250 ng·h/mL
- AUC(0-t) ([1]; 100 mg, Day 1, 100 mg QD oral, read-out: AUC(0-24 h) Median): 5180 ng·h/mL
- Cmax ([1]; 100 mg, Day 1, 100 mg QD oral, read-out: Cmax GM (% CV)): 366 ng/mL
- Cmax ([1]; 100 mg, Day 1, 100 mg QD oral, read-out: Cmax Mean (SD)): 373 ng/mL
- Cmax ([1]; 100 mg, Day 1, 100 mg QD oral, read-out: Cmax Median): 344 ng/mL
- Tmax ([1]; 100 mg, Day 1, 100 mg QD oral): 2.53 h
- AUC(0-t) ([1]; 100 mg, Day 14, 100 mg QD oral, read-out: AUC(0-24 h) GM (% CV)): 16600 ng·h/mL
- AUC(0-t) ([1]; 100 mg, Day 14, 100 mg QD oral, read-out: AUC(0-24 h) Mean (SD)): 16900 ng·h/mL
- AUC(0-t) ([1]; 100 mg, Day 14, 100 mg QD oral, read-out: AUC(0-24 h) Median): 16800 ng·h/mL
- AUC(0-inf) ([1]; 100 mg, Day 14, 100 mg QD oral, read-out: AUC(0-inf) GM (% CV)): 56400 ng·h/mL
- AUC(0-inf) ([1]; 100 mg, Day 14, 100 mg QD oral, read-out: AUC(0-inf) Mean (SD)): 58600 ng·h/mL
- AUC(0-inf) ([1]; 100 mg, Day 14, 100 mg QD oral, read-out: AUC(0-inf) Median): 62700 ng·h/mL
- Cmax ([1]; 100 mg, Day 14, 100 mg QD oral, read-out: Cmax GM (% CV)): 1010 ng/mL
- Cmax ([1]; 100 mg, Day 14, 100 mg QD oral, read-out: Cmax Mean (SD)): 1020 ng/mL
- Cmax ([1]; 100 mg, Day 14, 100 mg QD oral, read-out: Cmax Median): 1030 ng/mL
- Tmax ([1]; 100 mg, Day 14, 100 mg QD oral): 2.56 h
- AUC(0-t) ([1]; 200 mg, Day 1, 200 mg QD oral, read-out: AUC(0-24 h) GM (% CV)): 8650 ng·h/mL
- AUC(0-t) ([1]; 200 mg, Day 1, 200 mg QD oral, read-out: AUC(0-24 h) Mean (SD)): 9050 ng·h/mL
- AUC(0-t) ([1]; 200 mg, Day 1, 200 mg QD oral, read-out: AUC(0-24 h) Median): 10400 ng·h/mL
- Cmax ([1]; 200 mg, Day 1, 200 mg QD oral, read-out: Cmax GM (% CV)): 687 ng/mL
- Cmax ([1]; 200 mg, Day 1, 200 mg QD oral, read-out: Cmax Mean (SD)): 740 ng/mL
- Cmax ([1]; 200 mg, Day 1, 200 mg QD oral, read-out: Cmax Median): 813 ng/mL
- Tmax ([1]; 200 mg, Day 1, 200 mg QD oral): 2.01 h
- AUC(0-t) ([1]; 200 mg, Day 14, 200 mg QD oral, read-out: AUC(0-24 h) GM (% CV)): 22800 ng·h/mL
- AUC(0-t) ([1]; 200 mg, Day 14, 200 mg QD oral, read-out: AUC(0-24 h) Mean (SD)): 23100 ng·h/mL
- AUC(0-t) ([1]; 200 mg, Day 14, 200 mg QD oral, read-out: AUC(0-24 h) Median): 21300 ng·h/mL
- AUC(0-inf) ([1]; 200 mg, Day 14, 200 mg QD oral, read-out: AUC(0-inf) GM (% CV)): 70500 ng·h/mL
- AUC(0-inf) ([1]; 200 mg, Day 14, 200 mg QD oral, read-out: AUC(0-inf) Mean (SD)): 72200 ng·h/mL
- AUC(0-inf) ([1]; 200 mg, Day 14, 200 mg QD oral, read-out: AUC(0-inf) Median): 61900 ng·h/mL
- Cmax ([1]; 200 mg, Day 14, 200 mg QD oral, read-out: Cmax GM (% CV)): 1680 ng/mL
- Cmax ([1]; 200 mg, Day 14, 200 mg QD oral, read-out: Cmax Mean (SD)): 1730 ng/mL
- Cmax ([1]; 200 mg, Day 14, 200 mg QD oral, read-out: Cmax Median): 1950 ng/mL
- Tmax ([1]; 200 mg, Day 14, 200 mg QD oral): 2 h
- AUC(0-t) ([1]; 400 mg, Day 1, 400 mg QD oral, Japanese, read-out: AUC(0-24 h) GM (% CV)): 18300 ng·h/mL
- AUC(0-t) ([1]; 400 mg, Day 1, 400 mg QD oral, Japanese, read-out: AUC(0-24 h) Mean (SD)): 18400 ng·h/mL
- AUC(0-t) ([1]; 400 mg, Day 1, 400 mg QD oral, Japanese, read-out: AUC(0-24 h) Median): 18900 ng·h/mL
- Cmax ([1]; 400 mg, Day 1, 400 mg QD oral, Japanese, read-out: Cmax GM (% CV)): 1510 ng/mL
- Cmax ([1]; 400 mg, Day 1, 400 mg QD oral, Japanese, read-out: Cmax Mean (SD)): 1520 ng/mL
- Cmax ([1]; 400 mg, Day 1, 400 mg QD oral, Japanese, read-out: Cmax Median): 1510 ng/mL
- Tmax ([1]; 400 mg, Day 1, 400 mg QD oral, Japanese): 2 h
- AUC(0-t) ([1]; 400 mg, Day 1, 400 mg QD oral, Non-Japanese, read-out: AUC(0-24 h) GM (% CV)): 14500 ng·h/mL
- AUC(0-t) ([1]; 400 mg, Day 1, 400 mg QD oral, Non-Japanese, read-out: AUC(0-24 h) Mean (SD)): 14600 ng·h/mL
- AUC(0-t) ([1]; 400 mg, Day 1, 400 mg QD oral, Non-Japanese, read-out: AUC(0-24 h) Median): 14700 ng·h/mL
- Cmax ([1]; 400 mg, Day 1, 400 mg QD oral, Non-Japanese, read-out: Cmax GM (% CV)): 1100 ng/mL
- Cmax ([1]; 400 mg, Day 1, 400 mg QD oral, Non-Japanese, read-out: Cmax Mean (SD)): 1100 ng/mL
- Cmax ([1]; 400 mg, Day 1, 400 mg QD oral, Non-Japanese, read-out: Cmax Median): 1140 ng/mL
- Tmax ([1]; 400 mg, Day 1, 400 mg QD oral, Non-Japanese): 1.76 h
- AUC(0-t) ([1]; 400 mg, Day 14, 400 mg QD oral, Japanese, read-out: AUC(0-24 h) GM (% CV)): 42700 ng·h/mL
- AUC(0-t) ([1]; 400 mg, Day 14, 400 mg QD oral, Japanese, read-out: AUC(0-24 h) Mean (SD)): 42900 ng·h/mL
- AUC(0-t) ([1]; 400 mg, Day 14, 400 mg QD oral, Japanese, read-out: AUC(0-24 h) Median): 43200 ng·h/mL
- AUC(0-inf) ([1]; 400 mg, Day 14, 400 mg QD oral, Japanese, read-out: AUC(0-inf) GM (% CV)): 122000 ng·h/mL
- AUC(0-inf) ([1]; 400 mg, Day 14, 400 mg QD oral, Japanese, read-out: AUC(0-inf) Mean (SD)): 125000 ng·h/mL
- AUC(0-inf) ([1]; 400 mg, Day 14, 400 mg QD oral, Japanese, read-out: AUC(0-inf) Median): 120000 ng·h/mL
- Cmax ([1]; 400 mg, Day 14, 400 mg QD oral, Japanese, read-out: Cmax GM (% CV)): 3080 ng/mL
- Cmax ([1]; 400 mg, Day 14, 400 mg QD oral, Japanese, read-out: Cmax Mean (SD)): 3100 ng/mL
- Cmax ([1]; 400 mg, Day 14, 400 mg QD oral, Japanese, read-out: Cmax Median): 3250 ng/mL
- Tmax ([1]; 400 mg, Day 14, 400 mg QD oral, Japanese): 1.5 h
- AUC(0-t) ([1]; 400 mg, Day 14, 400 mg QD oral, Non-Japanese, read-out: AUC(0-24 h) GM (% CV)): 39200 ng·h/mL
- AUC(0-t) ([1]; 400 mg, Day 14, 400 mg QD oral, Non-Japanese, read-out: AUC(0-24 h) Mean (SD)): 40300 ng·h/mL
- AUC(0-t) ([1]; 400 mg, Day 14, 400 mg QD oral, Non-Japanese, read-out: AUC(0-24 h) Median): 43900 ng·h/mL
- AUC(0-inf) ([1]; 400 mg, Day 14, 400 mg QD oral, Non-Japanese, read-out: AUC(0-inf) GM (% CV)): 121000 ng·h/mL
- AUC(0-inf) ([1]; 400 mg, Day 14, 400 mg QD oral, Non-Japanese, read-out: AUC(0-inf) Mean (SD)): 135000 ng·h/mL
- AUC(0-inf) ([1]; 400 mg, Day 14, 400 mg QD oral, Non-Japanese, read-out: AUC(0-inf) Median): 141000 ng·h/mL
- Cmax ([1]; 400 mg, Day 14, 400 mg QD oral, Non-Japanese, read-out: Cmax GM (% CV)): 2740 ng/mL
- Cmax ([1]; 400 mg, Day 14, 400 mg QD oral, Non-Japanese, read-out: Cmax Mean (SD)): 2820 ng/mL
- Cmax ([1]; 400 mg, Day 14, 400 mg QD oral, Non-Japanese, read-out: Cmax Median): 3050 ng/mL
- Tmax ([1]; 400 mg, Day 14, 400 mg QD oral, Non-Japanese): 1.79 h
- upper 90% CI of the ΔΔQTcF [2]: less than 10 ms
